{
  "source": "patent US6822146B2",
  "about": "“Sulfonylurea-tolerant sunflower line M7” (priority 2000, dated 2004)",
  "key": {"[1]": {"system": "Orobanche cumana (Race F)", "test": "Test F sequential application to control Orobanche cumana", "type": "in vivo", "protocol": "A greenhouse experiment was performed to identify the best sequential program compared to straight application of tribenuron-methyl or metsulfuron-methyl for control of Orobanche cumana (Race F). The dose range for optimum efficacy was also studied. Both herbicides were used as formulated compositions. […] BC4-M5M7×PHA155 is referred to below as “Hybrid 7”, and BC4-M5M12×PHA155 is referred to below as “Hybrid 12”.\nSeed coating treatment was performed as described for Test D. Post-emergence treatments were applied at the 2-4 leaf stage of sunflower (corresponding to early stage of Orobanche attachment; identified as “T1”), the 6 leaf stage of sunflower (corresponding to the mid stage of Orobanche attachment; nodules <5 mm diameter; identified as “T2”) and 8 leaf stage of sunflower (corresponding to late stage of Orobanche attachment; identified as “T3”).\nThe efficacy was evaluated visually as described for Test D except that the efficacy was assessed ten days later than for Tests D and E. The later evaluation allowed observing any reduction of efficacy due to late Orobanche emergence or re-growth of treated nodules. Efficacy in controlling Orobanche attached to roots was evidenced by nodules comprising black necrotic tissues with no apparent active meristematic area. These nodules could be easily crushed between fingers."}, "[2]": {"system": "Weeds Agronomically Important in Sunflower Crops", "test": "Test H summary", "type": "in vivo", "conditions": "tribenuron-methyl 22.5 g a.i./ha, metsulfuron-methyl 6 g a.i./ha", "from_the_text": "Field plots (2 m×5 m) were tilled to remove weed cover and then seeded in rows with the following weeds: Capsella bursa pastoris, Atriplex patula, Chenopodium album, Stellaria media, Mecurialis annua, Polygonum persicaria, Amaranthus retroflexus, Polygonum convolvulus, Polygonum aviculare, Viola arvensis, Matricaria inodora, Anagallis arvensis, Sinapis arvensis, Setaria viridis, Solanum nigrum and Echinochloa crusgalli. After 21 days from sowing, at which time the weeds had reached the 2- to 6-leaf stage, herbicide treatments were applied to the plots according to a complete randomized block design, with each herbicide treatment triply replicated. The herbicides were sprayed using standard flat fan nozzles moved perpendicular to the sown lines using water spray volumes of about 296 L/ha.\nAssessments of weed control were made by visual inspection 36 days after herbicide treatment. A visual rating system was used based on a percentage scale from 0 to 100% compared to an adjacent untreated control plot. On this scale 0 represents no visual differences relative to an untreated control and 100 represents complete control of the given weed species."}, "BC4-M5M7 × PHA155": {"system": "BC4-M5M7 × PHA155", "test": "Test C field phytotoxicity, BC4-M5M7 × PHA155", "type": "in vivo, sunflower", "from_the_text": "A rating of 0% phytotoxicity means no crop injury."}, "'M2' seeds": {"system": "'M2' seeds", "test": "Hydroponic selection of M2 seeds with sulfonylurea herbicides", "type": "in vivo, sunflower", "conditions": "hydroponic beds", "protocol": "‘M2’ seeds were seeded in individual hydroponic beds described as “Large-Scale Hydroponic Screening System” in U.S. Pat. No. 5,084,082 and treated with sulfonylurea herbicides. For each treatment, 10,000 seeds were added per bed. […] Most of the treatments used thifensulfuron-methyl at 20, 40 or 50 μg/L or rimsulfuron at 40 or 80 μg/L. Five plants showing resistance to sulfonylurea herbicides were found during various selection experiments; these are identified in Table 2."}, "Orobanche cumana": {"system": "Orobanche cumana", "test": "Test D control of Orobanche cumana in resistant sunflower", "type": "in vivo", "protocol": "The purpose of this test was to evaluate the efficacy of tribenuron-methyl to control Orobanche cumana before and after crop emergence from the soil. Various herbicide treatments were evaluated using six replications of each treatment. Treatments investigated the following modes of application: seed coating, pre-emergence soil incorporation, bare-ground pre-emergence broadcast application, and post-emergence broadcast application. All herbicide treatments used formulated herbicide compositions.\nFor seed coating treatments, 3 mg of Orobanche cumana seeds were added to each pot containing a growing mixture of 60% dry loamy soil, 20% sand and 20% of peat, the growing mixture having an organic matter content of 4.2% and a pH of 8.05. The pots were placed in plastic trays and watered to the extent of 25% of soil weight. Pots were kept in a greenhouse for 8 to 10 days at about 24° C. during the day and 20° C. at night. Eight seeds of BC4-M5M12 sunflower resistant mutant were sown manually in the pots contaminated with Orobanche, at the end of the incubation period of the parasitic weed seeds.\nSeeds were first coated using a table-top laboratory fluid bed equipped with a coating device (“Strea 1 Aerocoater” made by Niro Aeromatic, Haupstrasse 145, CH-4416 Bubendorf, Switzerland) and a coating solution containing about 23% Sepiret 8330® (coating composition sold by Seppic, 75 quai d'Orsay Paris 75321 cedex 07 France) and 77% water at the rate of 3 L/100 Kg of seeds. After coating, the seeds were dried in a fluid bed drier at 35° C. […] The coated seeds were then dried at ambient temperature and stored until sowing.\nThe soil was then thoroughly mixed by hand and dispensed into the pots. The quantities of tribenuron-methyl used in these treatments are expressed in g a.i./ha based on the soil volume and pot dimensions. The quantities applied were 11.25 and 22.5 g a.i./ha.\nThe effect of the various treatments was evaluated 35 days after sowing. The sunflower roots were cleaned by washing in water, and the presence of Orobanche nodules was determined visually and by weighing root wet mass in comparison to check plants free of Orobanche infestation. […] The nodules caused by Orobanche increased root weight, and a correlation (r=0.7) was found between visual scores and weight measurements. Thus the weighing technique could be used to corroborate visual efficacy scorings. Orobanche emergence was also scored but found to be less useful to evaluate treatment efficiency at the evaluation timing of this test."}, "[3]": {"conditions": "post-emergence T1 3 + T3 3 g a.i./ha"}, "[4]": {"conditions": "post-emergence T1 11.25 + T3 11.25 g a.i./ha"}, "[5]": {"conditions": "post-emergence T1 22.5 g a.i./ha"}, "[6]": {"conditions": "post-emergence T2 11.25 g a.i./ha"}, "[7]": {"conditions": "post-emergence T2 22.5 g a.i./ha"}, "[8]": {"conditions": "post-emergence T3 11.25 g a.i./ha"}, "[9]": {"conditions": "post-emergence T3 22.5 g a.i./ha"}, "[10]": {"conditions": "seed coating 11.25 + post-emergence T2 11.25 g a.i./ha"}, "[11]": {"conditions": "seed coating 11.25 + post-emergence T3 11.25 g a.i./ha"}},
  "data": [
    {"smiles": "COC(=O)c1ccccc1S(=O)(=O)NC(=O)Nc1nc(C)nc(OC)n1", "note": "[Metsulfuron-methyl, metsulfuron-methyl]", "values": [
      {"measurement": "% Control in Hybrid 7", "setting": "[1]; [3]", "value": 92, "unit": "%"},
      {"measurement": "% Control in Hybrid 12", "setting": "[1]; [3]", "value": 90, "unit": "%"},
      {"measurement": "% Control in Hybrid 7", "setting": "[1]; post-emergence T1 3 g a.i./ha", "value": 65, "unit": "%"},
      {"measurement": "% Control in Hybrid 12", "setting": "[1]; post-emergence T1 3 g a.i./ha", "value": 63, "unit": "%"},
      {"measurement": "% Control in Hybrid 7", "setting": "[1]; post-emergence T3 3 g a.i./ha", "value": 93, "unit": "%"},
      {"measurement": "% Control in Hybrid 12", "setting": "[1]; post-emergence T3 3 g a.i./ha", "value": 95, "unit": "%"},
      {"measurement": "control of Orobanche", "setting": "[1]; single late post-emergence treatment with 3 g a.i./ha", "value": "excellent control"},
      {"measurement": "weed control spectrum", "setting": "[2]", "value": "excellent broad-spectrum weed control"}
    ]},
    {"smiles": "COC(=O)c1cccc(C)c1S(=O)(=O)NC(=O)Nc1nc(OCC(F)(F)F)nc(N(C)C)n1", "note": "[Triflusulfuron-methyl, triflusulfuron-methyl]", "values": [
      {"measurement": "Phytotoxicity Rating After Treatment", "setting": "BC4-M5M7 × PHA155; postemergence 7.5 g a.i./ha, 7 DAT", "value": 38, "unit": "%"},
      {"measurement": "Phytotoxicity Rating After Treatment", "setting": "BC4-M5M7 × PHA155; postemergence 7.5 g a.i./ha, 15 DAT", "value": 40, "unit": "%"},
      {"measurement": "Phytotoxicity Rating After Treatment", "setting": "BC4-M5M7 × PHA155; postemergence 7.5 g a.i./ha, 30 DAT", "value": 28, "unit": "%"},
      {"measurement": "Phytotoxicity Rating After Treatment", "setting": "BC4-M5M7 × PHA155; postemergence 15 g a.i./ha, 7 DAT", "value": 57, "unit": "%"},
      {"measurement": "Phytotoxicity Rating After Treatment", "setting": "BC4-M5M7 × PHA155; postemergence 15 g a.i./ha, 15 DAT", "value": 53, "unit": "%"},
      {"measurement": "Phytotoxicity Rating After Treatment", "setting": "BC4-M5M7 × PHA155; postemergence 15 g a.i./ha, 30 DAT", "value": 40, "unit": "%"},
      {"measurement": "suitability as selection agent", "setting": "'M2' seeds", "value": "insufficiently active on sunflower"}
    ]},
    {"smiles": "COC(=O)c1ccccc1S(=O)(=O)NC(=O)N(C)c1nc(C)nc(OC)n1", "note": "[Tribenuron-methyl, tribenuron-methyl]", "values": [
      {"measurement": "rate needed for good control of Orobanche", "setting": "[1]; greenhouse test, Hybrid 7 and Hybrid 12", "value": 22.5, "unit": "g a.i./ha"},
      {"measurement": "% Control in Hybrid 7", "setting": "[1]; [4]", "value": 85, "unit": "%"},
      {"measurement": "% Control in Hybrid 12", "setting": "[1]; [4]", "value": 85, "unit": "%"},
      {"measurement": "% Control in Hybrid 7", "setting": "[1]; [5]", "value": 72, "unit": "%"},
      {"measurement": "% Control in Hybrid 12", "setting": "[1]; [5]", "value": 73, "unit": "%"},
      {"measurement": "% Control in Hybrid 7", "setting": "[1]; [6]", "value": 77, "unit": "%"},
      {"measurement": "% Control in Hybrid 12", "setting": "[1]; [6]", "value": 73, "unit": "%"},
      {"measurement": "% Control in Hybrid 7", "setting": "[1]; [7]", "value": 82, "unit": "%"},
      {"measurement": "% Control in Hybrid 12", "setting": "[1]; [7]", "value": 83, "unit": "%"},
      {"measurement": "% Control in Hybrid 7", "setting": "[1]; [8]", "value": 78, "unit": "%"},
      {"measurement": "% Control in Hybrid 12", "setting": "[1]; [8]", "value": 80, "unit": "%"},
      {"measurement": "% Control in Hybrid 7", "setting": "[1]; [9]", "value": 87, "unit": "%"},
      {"measurement": "% Control in Hybrid 12", "setting": "[1]; [9]", "value": 87, "unit": "%"},
      {"measurement": "% Control in Hybrid 7", "setting": "[1]; [10]", "value": 77, "unit": "%"},
      {"measurement": "% Control in Hybrid 12", "setting": "[1]; [10]", "value": 78, "unit": "%"},
      {"measurement": "% Control in Hybrid 7", "setting": "[1]; [11]", "value": 82, "unit": "%"},
      {"measurement": "% Control in Hybrid 12", "setting": "[1]; [11]", "value": 83, "unit": "%"},
      {"measurement": "weed control spectrum", "setting": "[2]", "value": "excellent broad-spectrum weed control"},
      {"measurement": "Control", "setting": "Orobanche cumana; post-emergence broadcast spray 2.25 g a.i./ha", "value": 63, "unit": "%"},
      {"measurement": "Control", "setting": "Orobanche cumana; pre-emergence broadcast spray 11.25 g a.i./ha + post-emergence broadcast spray 11.25 g a.i./ha", "value": 78, "unit": "%"},
      {"measurement": "Control", "setting": "Orobanche cumana; pre-emergence broadcast spray 22.5 g a.i./ha", "value": 40, "unit": "%"},
      {"measurement": "Control", "setting": "Orobanche cumana; pre-emergence soil incorporation 11.25 g a.i./ha", "value": 55, "unit": "%"},
      {"measurement": "Control", "setting": "Orobanche cumana; pre-emergence soil incorporation 22.5 g a.i./ha", "value": 72, "unit": "%"},
      {"measurement": "Control", "setting": "Orobanche cumana; seed coating 0.00001 mg a.i./g + post-emergence broadcast spray 2.25 g a.i./ha", "value": 63, "unit": "%"},
      {"measurement": "Control", "setting": "Orobanche cumana; seed coating 0.00001 mg a.i./g + post-emergence broadcast spray 11.25 g a.i./ha", "value": 70, "unit": "%"},
      {"measurement": "Control", "setting": "Orobanche cumana; seed coating 0.00001 mg a.i./g, host BC4-M5M12, 35 days after sowing", "value": 8, "unit": "%"},
      {"measurement": "Control", "setting": "Orobanche cumana; seed coating 0.1 mg a.i./g + post-emergence broadcast spray 2.25 g a.i./ha", "value": 85, "unit": "%"},
      {"measurement": "Control", "setting": "Orobanche cumana; seed coating 0.1 mg a.i./g + post-emergence broadcast spray 11.25 g a.i./ha", "value": 80, "unit": "%"},
      {"measurement": "Control", "setting": "Orobanche cumana; seed coating 0.1 mg a.i./g, host BC4-M5M12, 35 days after sowing", "value": 37, "unit": "%"},
      {"measurement": "Control", "setting": "Orobanche cumana; seed coating 10 mg a.i./g + post-emergence broadcast spray 2.25 g a.i./ha", "value": 82, "unit": "%"},
      {"measurement": "Control", "setting": "Orobanche cumana; seed coating 10 mg a.i./g + post-emergence broadcast spray 11.25 g a.i./ha", "value": 89, "unit": "%"}
    ]}
  ]
}
